Two compounds from article PMC8752837, “Structural basis of BAK activation in mitochondrial apoptosis initiation” (Nature Communications, 2022) can be followed below.

Substitutions are numbered along the chain they refer to.

The target of test [1] is T1, MEAS-BAK-His6 (Homo sapiens, UniProt Q16611).
T1 construct: C-terminus truncated recombinant human BAK containing C-terminal 6× histidine tag (MEAS-BAK); made in house; host or cells: E. coli T7 Express pLac I/Y
T1 sequence (Q16611 1-186 limits assumed): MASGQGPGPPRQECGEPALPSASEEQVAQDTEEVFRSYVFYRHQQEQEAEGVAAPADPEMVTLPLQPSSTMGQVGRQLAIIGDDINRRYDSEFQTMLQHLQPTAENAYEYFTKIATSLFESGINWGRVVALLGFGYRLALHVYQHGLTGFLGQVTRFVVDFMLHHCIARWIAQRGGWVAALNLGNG
The test can be described thus: Surface plasmon resonance. It is filed as binding. The following applies: 20 °C; MEAS-BAK-His6 captured on Ni-NTA HisCap chip; three-fold peptide dilution series injected in triplicate; 1:1 interaction model; read-out: SPR KD. How it is done: We conducted SPR experiments at 20 °C using a Pioneer FE optical biosensor (ForteBio) amd histidine-tagged MEAS-BAK-His6 immobilized on polycarboxylate hydrogel-coated gold chips preimmobilized with nitrilotriacetic acid (HisCap chips; ForteBio). We primed the chip in chelating buffer (10 mM HEPES pH 7.4, 150 mM NaCl, 50 µM EDTA, 0.005% Tween20) and preconditioned it at 10 µL/min with three 60 s injections of wash buffer (10 mM HEPES pH 8.3, 150 mM NaCl, 350 mM EDTA, 0.05% Tween20) and one 60 s injection of chelating buffer before charging with a 60 s injection of 500 µM NiCl2 in chelating buffer. After priming into binding buffer (20 mM HEPES pH 8.0, 200 mM NaCl, 1 mM TCEP, 0.01% Tween20), we injected BAK to achieve ~500 RU of captured protein. As reference cell, we charged one flow cell on the chip with Ni^2+ without adding protein. […] We included a series of buffer-only (blank) injections throughout the experiment to account for instrumental noise. […] We processed, double-referenced, solvent corrected, and analyzed the data using the software package Qdat (version 4.3.1.2, ForteBio). We determined kinetic rate constants and affinities by fitting the data to a 1:1 interaction model.
(SPR reads the build-up and loss of mass on a sensor chip optically.)

Test [2] has as its target T2, Human BAK-∆TM-His6 (BAK) (Homo sapiens, UniProt Q16611).
T2 construct: C-terminus truncated recombinant human BAK containing C-terminal 6× histidine tag (MEAS-BAK); made in house; host or cells: E. coli T7 Express pLac I/Y
T2 sequence (Q16611 1-186 limits assumed): T1 sequence (Q16611 1-186 limits assumed)
The test can be described thus: Liposome permeabilization assay (ANTS/DPX dye release from LUVs): activation of WT BAK by BH3 peptides. It is filed as biochemical. The conditions noted are these: 50 nM BAK; EC50 from AUC vs peptide dose, data in Supplementary Figure 7c; 37 °C, 90 min; read-out: Liposome permeabilization EC50.

Test [3] has as its target T3, I81R BAK (Homo sapiens, UniProt Q16611, I81R).
T3 construct: To generate tevBAK (residues 22–186), we cleaved off the histidine tag with TEV protease; His tag (vector pNIC28-Bsa4) (N, cleaved yes); made in house; host or cells: E. coli T7 Express pLac I/Y
T3 sequence (Q16611 22-186 I81R): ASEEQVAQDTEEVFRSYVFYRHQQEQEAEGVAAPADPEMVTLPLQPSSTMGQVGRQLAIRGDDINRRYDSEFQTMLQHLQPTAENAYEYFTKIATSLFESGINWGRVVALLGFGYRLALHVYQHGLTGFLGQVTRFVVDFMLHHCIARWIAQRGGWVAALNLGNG
The test can be described thus: Isothermal titration calorimetry with mutant BAK. It is filed as binding. The following applies: rebuttal, earlier Figures 7c, S10d. How it is done: Protein samples were exchanged into 20 mM HEPES, 100 mM NaCl and 1 mM TCEP prior to the experiment. Titrations were performed by first injecting 0.5 μl of 250 or 500 µM BID BH3 peptides into a solution of 20 or 50 µM BAK followed by additional 2 μl injections. […] Results were analyzed using Origin software (OriginLab) provided by MicroCal. Binding constants (KD) and thermodynamic parameters were calculated from the average of two or three individual titrations by fitting the data to a single site binding model using a nonlinear least-squares fitting algorithm.
In general terms: Isothermal titration calorimetry measures the heat released or taken up as one component is titrated into another.

The target of test [4] is T4, I81R(3) BAK (Homo sapiens, UniProt Q16611, I81R).
T4 construct: C-terminus truncated recombinant human BAK containing C-terminal 6× histidine tag (MEAS-BAK); made in house; host or cells: E. coli T7 Express pLac I/Y
T4 sequence (Q16611 1-186 I81R limits assumed): T1 sequence (Q16611 1-186 limits assumed) with I81R
The test can be described thus: Liposome permeabilization assay: BH3 peptide activation of I81R(3) BAK receptor. The conditions noted are these: 200 nM protein receptor; rebuttal, earlier Figure 7c; read-out: EC50 in liposome permeabilization upon direct activation of I81R BAK. It is filed as biochemical. How it is done:
We next compared activation of mutant BAK receptors by WT BID BH3 and WT BAK BH3 peptide ligands. At concentrations above 1 µM, both peptide ligands would activate WT or V74A(1) BAK (Supplementary Figs. 3e, 4d, e, and Supplementary Table 1).
We performed liposome permeabilization assays as previously described[43]–[46]. […] (nickel salt) [DGS NTA(Ni), 2.5 μM final concentration in each assay] (Avanti Polar Lipids). We prepared 12.5 mM fluorophore; 8-aminonaphthalene-1, 3, 6-trisulfonic acid, disodium salt (ANTS) and 45 mM quencher; p-xylene-bis-pyridiniumbromide (DPX) in LUV buffer (10 mM HEPES pH 6.8, 200 mM KCl and 5 mM MgCl2). We mixed the lipid film in ANTS/DPX solution by vortexing and sonication (~15 min) followed by extrusion through polycarbonate membrane of 2 μm pore size (Avanti Polar lipids) to generate homogenous large unilamellar vesicles (LUVs). We separated LUVs from free ANTS/DPX by S500 size exclusion chromatography and stored them at 4 °C in the dark. We prepared peptide and protein dilutions in 96-well black flat bottom plates (Costar) kept on ice. ANTS release from permeabilized liposomes causes an increase in fluorescence, which we monitored at 37 °C for 90 min using a CLARIOSTAR microplate reader (BMG Labtech) set at excitation and emission wavelengths of 360 and 530 nm, respectively. We normalized the data relative to maximum and minimum fluorescence induced by 3% CHAPS and buffer controls, respectively. We quantified liposome permabilization by integrating area under curve (AUC) of normalized traces based on the Simpson’s equation, and analyzed that data in Excel and GraphPad Prism. AUC measurements reflect the kinetic and extent of liposome permeabilization and provide quantitative means for comparison between different experimental conditions (e.g., BAK mutants with gross or partial variation in activity). Variability in permeabilization of different liposomes is common and our analyses compare among conditions investigated with the same liposomes. […]

Test [5] relates to BCL2allKO HCT116 cells reconstituted with Dox-inducible mC-BAK. Nature of the test: Dox-induced cell death by IncuCyte imaging of SYTOX Green uptake (autoactivation). It is filed as cell-based, human. The following applies: qVD 40 µM. The source says:
For mammalian cell culture experiments, we cloned the full length human BAK cDNA into pCR 2.1 TOPO vector, mutated BAK as needed, and PCR amplified the BAK gene for cloning into the BamHI and NotI sites of pRETROX mCherry vector for retroviral transduction. Amplification and mutagenesis primers are included in Supplementary Table 4. To test direct BAK activation and BAK autoactivation in cells, we produced cells stably expressing mCherry-human BAK (mC-BAK) ± human BID (BID) on a genetic background devoid of the entire BCL-2 family repertoire (all 17 BCL-2 genes), BCL2allKO HCT116, as described by the Xu Luo laboratory. […] To enrich for populations of cells that express mC-BAK, we treated cells with low Dox dose (25 ng/mL) and fluorescence-activated cell sorted (FACS) the mCherry positive cells. […]
We seeded cells in 24-well (100,000 cells/well), 96-well (15,000 cells/well), or 384-well (10,000 cells/well) plates coated with 10 µg/mL fibronectin. After ≥24 h of attachment and recovery, we induced cell death with Dox (up to 1000 ng/mL) and monitored SYTOX Green (25 nM) uptake by Incucyte imaging. […] We monitored Incucyte imaging for up to 48 h, followed by endpoint FACS analysis to measure the extent of cell death based on SYTOX Green positive cells on FACSCalibur systems (BD Biosciences). As expected, cells with low mCherry fluorescence were refractory to cell death.

The term Kd denotes the free concentration of one partner at which half of the binding sites on the other are occupied at equilibrium, for simple one-to-one binding. By EC50 is commonly meant the concentration that produces a half-maximal response. `CC[C@H](C)[C@H](NC(=O)[C@H](CC(N)=O)NC(=O)[C@H](CCCNC(=N)N)NC(=O)[C@@H](NC(=O)[C@@H](NC(=O)[C@H](CC(=O)O)NC(=O)[C@H](CCC(=O)O)NC(C)=O)[C@@H](C)CC)[C@@H](C)CC)C(=O)N[C@@H](C)C(=O)N[C@@H](CCCNC(=N)N)C(=O)N[C@@H](Cc1c[nH]cn1)C(=O)N[C@@H](CC(C)C)C(=O)N[C@@H](C)C(=O)N[C@@H](CCC(N)=O)C(=O)N[C@@H](CCSC)C(=O)NCC(=O)N[C@@H](CC(=O)O)C(=O)N[C@@H](CO)C(=O)N[C@@H](CCSC)C(=O)N[C@@H](CC(=O)O)C(=O)N[C@@H](CCCNC(=N)N)C(=O)N[C@@H](CO)C(=O)N[C@@H](Cc1c[nH]c2ccccc12)C(N)=O` [M(3)W(5)]: the results for the Kd in test [1] and in test [3] were 506 ± 1 nM and 1340 nM, respectively. For the same compound, the EC50 in test [2] was 79 ± 49 nM; in test [4] it was around 5000 nM.
`CC(C)[C@H](NC(=O)c1ccc2ccccc2n1)C(=O)N[C@@H](CC(=O)O)C(=O)COc1c(F)cccc1F` [qVD, reference compound]: the “effect on cell death” value in test [5] is reported as “blocked cell death”.
